Measurements published in PMC10893631, “Receptor-based pharmacophore modeling, molecular docking, synthesis and biological evaluation of novel VEGFR-2, FGFR-1, and BRAF multi-kinase inhibitors” (BMC Chemistry, 2024).

Key:
Assay in all cases: NCI SRB growth inhibition (single dose 10 µM / five-dose)
Type in all cases: cell-based, human
786–0 = conditions: Homo sapiens; for inhibition at 10 µM: 786–0 (Renal cancer), read-out: GI%
Description: (§1) Screening of cytotoxic activity against a panel of sixty human tumor cell lines The selected compounds by NCI were evaluated for their anticancer activity in a two- stage process. […] Then, the output from the single dose screen is reported as a mean graph. […] Assay protocol. […] For a typical screening experiment, cells are inoculated into 96 well microtiter plates in 100 µL at plating densities ranging from 5000 to 40,000 cells/well depending on the doubling time of individual cell lines. […] After 24 h, two plates of each cell line are fixed in situ with TCA, to represent a measurement of the cell population for each cell line at the time of drug addition (Tz). The experimental drugs are solubilized in dimethyl sulfoxide at 400-fold the desired final maximum test concentration and stored frozen prior to use. At the time of drug addition, an aliquot of frozen concentrate is thawed and diluted to twice the desired final maximum test concentration with complete medium containing 50 µg/mL gentamicin. Additional four, 10-fold or ½ log serial dilutions are made to provide a total of five drug concentrations plus control. Aliquots of 100 mL of these different drug dilutions are added to the appropriate microtiter wells already containing […] of medium, resulting in the required final drug concentrations. […] For adherent cells, the assay is terminated by the addition of cold TCA. […] The supernatant is discarded, and the plates are washed five times with tap water and air dried. Sulforhodamine B (SRB) solution ([…]) at 0.4% (w/v) in 1% acetic acid is added to each well, and plates are incubated for 10 min at room temperature. After staining, unbound dye is removed by washing five times with 1% acetic acid and the plates are air dried. […] Using the seven absorbance measurements [time zero, (Tz), control growth, (C), and test growth in the presence of drug at the five concentration levels (Ti)], the percentage growth is calculated at each of the drug concentrations levels. Percentage growth inhibition is calculated as: [(Ti Tz)/(C–Tz)] x 100 for concentrations for which Ti>/=Tz and [(Ti-Tz)/Tz] x 100 for concentrations for which Ti < Tz. Three dose response parameters are calculated for each experimental agent. […] The drug concentration resulting in total growth inhibition (TGI) is calculated from Ti = Tz. […] Values are calculated for each of these three parameters if the level of activity is reached; however, if the effect is not reached or is exceeded, the value for that parameter is expressed as greater or less than the maximum or minimum concentration tested.

A549/ATCC = conditions: Homo sapiens; for inhibition at 10 µM: A549/ATCC (Non-small cell lung cancer), read-out: GI%; for GI50: A549/ATCC, Non-small cell lung cancer, five-dose
Description: as §1

BT-549 = conditions: Homo sapiens; for inhibition at 10 µM: BT-549 (Breast cancer), read-out: GI%; for GI50: BT-549, Breast cancer, five-dose
Description: as §1

CAKI-1 = conditions: Homo sapiens; for inhibition at 10 µM: CAKI-1 (Renal cancer), read-out: GI%; for GI50: CAKI-1, Renal cancer, five-dose
Description: as §1

CCRF-CEM = conditions: Homo sapiens; for inhibition at 10 µM: CCRF-CEM (Leukemia), read-out: GI%; for GI50: CCRF-CEM, Leukemia, five-dose
Description: as §1

EKVX = conditions: Homo sapiens; for inhibition at 10 µM: EKVX (Non-small cell lung cancer), read-out: GI%; for GI50: EKVX, Non-small cell lung cancer, five-dose
Description: as §1

HS 578 T = conditions: Homo sapiens; for inhibition at 10 µM: HS 578 T (Breast cancer), read-out: GI%; for GI50: HS 578 T, Breast cancer, five-dose
Description: as §1

KM12 = conditions: Homo sapiens; for inhibition at 10 µM: KM12 (Colon cancer), read-out: GI%; for GI50: KM12, Colon cancer, five-dose
Description: as §1

M14 = conditions: Homo sapiens; for inhibition at 10 µM: M14 (Melanoma), read-out: GI%; for GI50: M14, Melanoma, five-dose
Description: as §1

MCF7 = conditions: Homo sapiens; for inhibition at 10 µM: MCF7 (Breast cancer), read-out: GI%; for GI50: MCF7, Breast cancer, five-dose
Description: as §1

MDA-MB-231/ATCC = conditions: Homo sapiens; for inhibition at 10 µM: MDA-MB-231/ATCC (Breast cancer), read-out: GI%; for GI50: MDA-MB-231/ATCC, Breast cancer, five-dose
Description: as §1

MDA-MB-435 = conditions: Homo sapiens; for inhibition at 10 µM: MDA-MB-435 (Melanoma), read-out: GI%; for GI50: MDA-MB-435, Melanoma, five-dose
Description: as §1

MDA-MB-468 = conditions: Homo sapiens; for inhibition at 10 µM: MDA-MB-468 (Breast cancer), read-out: GI%; for GI50: MDA-MB-468, Breast cancer, five-dose
Description: as §1

NCI-H460 = conditions: Homo sapiens; for inhibition at 10 µM: NCI-H460 (Non-small cell lung cancer), read-out: GI%; for GI50: NCI-H460, Non-small cell lung cancer, five-dose
Description: as §1

OVCAR-8 = conditions: Homo sapiens; for inhibition at 10 µM: OVCAR-8 (Ovarian cancer), read-out: GI%; for GI50: OVCAR-8, Ovarian cancer, five-dose
Description: as §1

RXF 393 = conditions: Homo sapiens; for inhibition at 10 µM: RXF 393 (Renal cancer), read-out: GI%; for GI50: RXF 393, Renal cancer, five-dose
Description: as §1

SF-268 = conditions: Homo sapiens; for inhibition at 10 µM: SF-268 (CNS cancer), read-out: GI%; for GI50: SF-268, CNS cancer, five-dose
Description: as §1

SF-295 = conditions: Homo sapiens; for inhibition at 10 µM: SF-295 (CNS cancer), read-out: GI%; for GI50: SF-295, CNS cancer, five-dose
Description: as §1

SF-539 = conditions: Homo sapiens; for inhibition at 10 µM: SF-539 (CNS cancer), read-out: GI%; for GI50: SF-539, CNS cancer, five-dose
Description: as §1

SK-MEL-28 = conditions: Homo sapiens; for inhibition at 10 µM: SK-MEL-28 (Melanoma), read-out: GI%; for GI50: SK-MEL-28, Melanoma, five-dose
Description: as §1

SK-OV-3 = conditions: Homo sapiens; for GI50: SK-OV-3, Ovarian cancer, five-dose
Description: as §1

SN12C = conditions: Homo sapiens; for inhibition at 10 µM: SN12C (Renal cancer), read-out: GI%; for GI50: SN12C, Renal cancer, five-dose
Description: as §1

SR = conditions: Homo sapiens; for inhibition at 10 µM: SR (Leukemia), read-out: GI%; for GI50: SR, Leukemia, five-dose
Description: as §1

SW-620 = conditions: Homo sapiens; for inhibition at 10 µM: SW-620 (Colon cancer), read-out: GI%; for GI50: SW-620, Colon cancer, five-dose
Description: as §1

TK-10 = conditions: Homo sapiens; for inhibition at 10 µM: TK-10 (Renal cancer), read-out: GI%; for GI50: TK-10, Renal cancer, five-dose
Description: as §1

UACC-62 = conditions: Homo sapiens; for inhibition at 10 µM: UACC-62 (Melanoma), read-out: GI%; for GI50: UACC-62, Melanoma, five-dose
Description: as §1

Compound: COc1cccc(C=NNC(=O)c2ccc3[nH]c(-c4ccccc4)nc3c2)c1O [8d, N'-(2-hydroxy-3-methoxybenzylidene)-2-phenyl-1H-benzo[d]imidazole-5-carbohydrazide]
- inhibition at 10 µM (786–0): 86%
- GI50 (786–0; 786–0, Renal cancer, five-dose): 2470 nM
- inhibition at 10 µM (A549/ATCC): 79.8%
- GI50 (A549/ATCC): 3390 nM
- inhibition at 10 µM (BT-549): 96.6%
- GI50 (BT-549): 1520 nM
- inhibition at 10 µM (CAKI-1): 91.6%
- GI50 (CAKI-1): 2680 nM
- inhibition at 10 µM (CCRF-CEM): > 100%
- GI50 (CCRF-CEM): 300 nM
- inhibition at 10 µM (EKVX): 87.6%
- GI50 (EKVX): 1860 nM
- inhibition at 10 µM (HS 578 T): 92.9%
- GI50 (HS 578 T): 620 nM
- inhibition at 10 µM (KM12): > 100%
- GI50 (KM12): 2580 nM
- inhibition at 10 µM (M14): > 100%
- GI50 (M14): 1570 nM
- inhibition at 10 µM (MCF7): 98.1%
- GI50 (MCF7): 1060 nM
- inhibition at 10 µM (MDA-MB-231/ATCC): 94.4%
- GI50 (MDA-MB-231/ATCC): 2410 nM
- inhibition at 10 µM (MDA-MB-435): 74.6%
- GI50 (MDA-MB-435): 4690 nM
- inhibition at 10 µM (MDA-MB-468): > 100%
- GI50 (MDA-MB-468): 890 nM
- inhibition at 10 µM (NCI-H460): 86.4%
- GI50 (NCI-H460): 2630 nM
- inhibition at 10 µM (OVCAR-8): > 100%
- GI50 (OVCAR-8): 1620 nM
- inhibition at 10 µM (RXF 393): 86%
- GI50 (RXF 393): 3210 nM
- inhibition at 10 µM (SF-268): 99%
- GI50 (SF-268): 1760 nM
- inhibition at 10 µM (SF-295): 83.2%
- GI50 (SF-295): 2930 nM
- inhibition at 10 µM (SF-539): > 100%
- GI50 (SF-539): 1310 nM
- inhibition at 10 µM (SK-MEL-28): 96.2%
- GI50 (SK-MEL-28): 1780 nM
- GI50 (SK-OV-3): 2560 nM
- inhibition at 10 µM (SN12C): 91.5%
- GI50 (SN12C): 2080 nM
- inhibition at 10 µM (SR): 77%
- GI50 (SR): 1800 nM
- inhibition at 10 µM (SW-620): 70.8%
- GI50 (SW-620): 3770 nM
- inhibition at 10 µM (TK-10): 50.6%
- GI50 (TK-10): 4780 nM
- inhibition at 10 µM (UACC-62): 99.5%
- GI50 (UACC-62): 1220 nM

Compound: COc1ccc(-c2nc3cc(C(=O)NN=Cc4ccccc4O)ccc3[nH]2)cc1 [8h, N'-(2-Hydroxybenzylidene)-2-(4-methoxyphenyl)-1H-benzo[d]imidazole-5-carbohydrazide]
- inhibition at 10 µM (786–0): > 100%
- inhibition at 10 µM (A549/ATCC): > 100%
- GI50 (A549/ATCC): 3030 nM
- inhibition at 10 µM (BT-549): > 100%
- GI50 (BT-549): 6990 nM
- inhibition at 10 µM (CAKI-1): > 100%
- GI50 (CAKI-1): 1780 nM
- inhibition at 10 µM (CCRF-CEM): 94.3%
- GI50 (CCRF-CEM): 920 nM
- inhibition at 10 µM (EKVX): 92.2%
- GI50 (EKVX): 3240 nM
- inhibition at 10 µM (HS 578 T): > 100%
- GI50 (HS 578 T): 940 nM
- inhibition at 10 µM (KM12): > 100%
- GI50 (KM12): 4240 nM
- inhibition at 10 µM (M14): > 100%
- GI50 (M14): 3650 nM
- inhibition at 10 µM (MCF7): > 100%
- GI50 (MCF7): 1670 nM
- inhibition at 10 µM (MDA-MB-231/ATCC): 98.7%
- GI50 (MDA-MB-231/ATCC): 4480 nM
- inhibition at 10 µM (MDA-MB-435): > 100%
- GI50 (MDA-MB-435): 1950 nM
- inhibition at 10 µM (MDA-MB-468): > 100%
- GI50 (MDA-MB-468): 2980 nM
- inhibition at 10 µM (NCI-H460): > 100%
- GI50 (NCI-H460): 1870 nM
- inhibition at 10 µM (OVCAR-8): > 100%
- GI50 (OVCAR-8): 1970 nM
- inhibition at 10 µM (RXF 393): > 100%
- GI50 (RXF 393): 6290 nM
- inhibition at 10 µM (SF-268): > 100%
- GI50 (SF-268): 920 nM
- inhibition at 10 µM (SF-295): > 100%
- GI50 (SF-295): 1260 nM
- inhibition at 10 µM (SF-539): > 100%
- GI50 (SF-539): 2050 nM
- inhibition at 10 µM (SK-MEL-28): > 100%
- GI50 (SK-MEL-28): 2960 nM
- inhibition at 10 µM (SK-OV-3; SK-OV-3 (Ovarian cancer), 10 µM, read-out: GI%): > 100%
- GI50 (SK-OV-3): 7300 nM
- inhibition at 10 µM (SN12C): > 100%
- GI50 (SN12C): 4990 nM
- inhibition at 10 µM (SR): 85.9%
- GI50 (SR): 1170 nM
- inhibition at 10 µM (SW-620): > 100%
- GI50 (SW-620): 1750 nM
- inhibition at 10 µM (TK-10): > 100%
- GI50 (TK-10): 6190 nM
- inhibition at 10 µM (UACC-62): > 100%
- GI50 (UACC-62): 2530 nM
